The target in the first test is human recombinant ATX (Homo sapiens, UniProt Q13822). Kind of test: Autotaxin (ATX) activity Quanta Red assay. The test is classed as biochemical. The settings on record: Table 2: additional compounds tested for ATX activity (Quanta Red Assay); read-out: Activity. The gist of the method: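 Recombinant human ATX reaction stopped after 2 h with Quanta Red stop solution; fluorescence read at […]. Controls with DMSO, with and without ATX; IC50 in duplicate.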
On to `O=C(CCc1nc2cccnc2n1Cc1cccs1)NCc1ccc(F)cc1` [Example 224, N-(4-Fluoro-benzyl)-3-(3-thiophen-2-ylmethyl-3H-imidazo[4,5-b]pyridin-2-yl)-propionamide], for which the IC50 turned out to be 685 nM.

With `CCCCNC(=O)CCc1nc2cccnc2n1Cc1ccccc1` [Example 228, 3-(3-Benzyl-3H-imidazo[4,5-b]pyridin-2-yl)-N-butyl-propionamide], the IC50 was 8810 nM.

Still in this test, the particulars now being: human recombinant ATX 0.8 μg/mL, 2 hours at room temperature, IC50 determined in duplicate; read-out: Activity (ATX activity, Quanta Red assay; IC50).
For `C[C@H](NC(=O)CCc1nc2cccnc2n1Cc1ccccc1)c1ccccc1` [Example 1, 3-(3-benzyl-3H-imidazo[4,5-b]pyridin-2-yl)-N—((S)-1-phenyl-ethyl)-propionamide], the IC50 stood at 68 nM.

Take `C[C@@H](NC(=O)CCc1nc2cccnc2n1Cc1ccccc1)c1ccccc1` [Example 4, 3-(3-Benzyl-3H-imidazo[4,5-b]pyridin-2-yl)-N-((R)-1-phenyl-ethyl)-propionamide]: the IC50 turned out to be 2630 nM.

With `COc1ccc(Cn2c(CCC(=O)N[C@@H](C)c3ccc(Cl)cc3)nc3cccnc32)cc1` [Example 84, N-[(S)-1-(4-Chloro-phenyl)-ethyl]-3-[3-(4-methoxy-benzyl)-3H-imidazo[4,5-b]pyridin-2-yl]-propionamide], the IC50 was 3 nM.

On to `C[C@H](NC(=O)C[S+]([O-])c1nc2cccnc2n1Cc1ccc(OC(F)(F)F)cc1)c1ccc(F)cc1` (single isomer, unassigned) [Example 148], for which the IC50 was 10 nM.

In the case of `C[C@H](NC(=O)CCc1nc2cccnc2n1Cc1ccc(C(F)(F)F)cc1)c1ccc(Cl)cc1` [Example 12, N-[(S)-1-(4-Chloro-phenyl)-ethyl]-3-[3-(4-trifluoromethyl-benzyl)-3H-imidazo[4,5-b]pyridin-2-yl]-propionamide], the IC50 amounted to 2 nM.

The same test, now with this note: read-out: Activity (ATX activity, Quanta Red assay; IC50).
As for `C[C@H](NC(=O)CCc1nc2cccnc2n1Cc1ccc(Br)cc1)c1ccc(Cl)cc1` [Example 21, 3-[3-(4-Bromo-benzyl)-3H-imidazo[4,5-b]pyridin-2-yl]-N-[(S)-1-(4-chloro-phenyl)-ethyl]-propionamide], the IC50 turned out to be 5 nM.

In the case of `O=C(CCc1nc2cccnc2n1Cc1ccc(F)c(F)c1)NCc1ccccn1` [Example 75, 3-[3-(3,4-Difluoro-benzyl)-3H-imidazo[4,5-b]pyridin-2-yl]-N-pyridin-2-ylmethyl-propionamide], the IC50 came to 424 nM.

As for `Cc1cnc2c(c1)nc(CCC(=O)N[C@@H](C)c1ccc(Cl)cc1)n2Cc1ccc(OC(F)(F)F)cc1` [Example 211, N—[(S)-1-(4-chloro-phenyl)-ethyl]-3-[6-methyl-3-(4-trifluoromethoxy-benzyl)-3H-imidazo[4,5-b]pyridin-2-yl]-propionamide], the IC50 was 7 nM.

Take `CC[C@H](NC(=O)CCc1nc2cccnc2n1Cc1ccc(OC)cc1)c1ccccc1` [Example 93, 3-[3-(4-Methoxy-benzyl)-3H-imidazo[4,5-b]pyridin-2-yl]-N-((S)-1-phenyl-propyl)-propionamide]: the IC50 stood at 15 nM.

For `COc1cc(OC(F)(F)F)ccc1CNC(=O)CCc1nc2cccnc2n1Cc1ccc(F)c(F)c1` [Example 74, 3-[3-(3,4-Difluoro-benzyl)-3H-imidazo[4,5-b]pyridin-2-yl]-N-(2-methoxy-4-trifluoromethoxy-benzyl)-propionamide], the IC50 was determined as 339 nM.

`COc1ccc(CNC(=O)CCc2nc3cccnc3n2Cc2cccc(OC(F)(F)F)c2)cc1` [Example 98, N-(4-Methoxy-benzyl)-3-[3-(3-trifluoromethoxy-benzyl)-3H-imidazo[4,5-b]pyridin-2-yl]-propionamide]: the IC50 worked out at 45 nM.

`Cc1cnc(NC(=O)CCc2nc3cccnc3n2Cc2ccc(OC(F)(F)F)cc2)s1` [Example 81, N-(5-Methyl-thiazol-2-yl)-3-[3-(4-trifluoromethoxy-benzyl)-3H-imidazo[4,5-b]pyridin-2-yl]-propionamide]: the IC50 turned out to be 1480 nM.

Consider `C[C@H](NC(=O)CCc1nc2cc(Br)cnc2n1Cc1ccc(F)cc1)c1ccc(Cl)cc1` [Example 70, 3-[6-Bromo-3-(4-fluoro-benzyl)-3H-imidazo[4,5-b]pyridin-2-yl]-N-[(S)-1-(4-chloro-propionimide)]], for which the IC50 worked out at 242 nM.

Turning to `C[C@H](NC(=O)CCc1cc2cccnc2n1Cc1ccc(Cl)cc1)c1ccc(F)cc1` [Example 138, 3-[1-(4-Chloro-benzyl)-1H-pyrrolo[2,3-b]pyridin-2-yl]-N-[(S)-1-(4-fluoro-phenyl)-ethyl]-propionamide], the IC50 was 10 nM.

Turning to `CN(C)CCCOc1ccc(CNC(=O)CCc2nc3cccnc3n2Cc2ccc(OC(F)(F)F)cc2)cc1` [Example 10, N-[4-(3-Dimethylamino-propoxy)-benzyl]-3-[3-(4-trifluoromethoxy-benzyl)-3H-imidazo[4,5-b]pyridin-2-yl]-propionamide], the IC50 is 2 nM.

As for `C[C@H](NC(=O)CCc1nc2cccnc2n1Cc1ccc(F)cc1)c1ccccc1` [Example 87, 3-[3-(4-Fluoro-benzyl)-3H-imidazo[4,5-b]pyridin-2-yl]-N-((S)-1-phenyl-ethyl)-propionamide], the IC50 was 6 nM.

For `O=C(CCc1nc2cccnc2n1Cc1ccc(F)c(F)c1)NC[C@H](O)c1ccccc1` [Example 67, 3-[3-(3,4-Difluoro-benzyl)-3H-imidazo[4,5-b]pyridin-2-yl]-N-((R)-2-hydroxy-2-phenyl-ethyl)-propionamide], the IC50 came out at 169 nM.

Regarding `O=C(CCc1nc2cccnc2n1Cc1ccc(F)c(F)c1)NC(CO)c1ccc(F)cc1` (centres unmarked) [Example 50, 3-[3-(3,4-Difluoro-benzyl)-3H-imidazo[4,5-b]pyridin-2-yl]-N-[1-(4-fluoro-phenyl)-2-hydroxy-ethyl]-propionamide], the IC50 was found to be 22 nM.

With `NC[C@H](NC(=O)CCc1nc2cccnc2n1Cc1ccc(OC(F)(F)F)cc1)c1ccccc1` [Example 210, N—((R)-2-amino-1-phenyl-ethyl)-3-[3-(4-trifluoromethoxy-benzyl)-3H-imidazo[4,5-b]pyridin-2-yl]-propionamide], the IC50 was 3 nM.

Take `CN(C)CCOc1ccc(CNC(=O)CCc2nc3cccnc3n2Cc2ccc(OC(F)(F)F)cc2)cc1` [Example 19, N-[4-(2-Dimethylamino-ethoxy)-benzyl]-3-[3-(4-trifluoromethoxy-benzyl)-3H-imidazo[4,5-b]pyridin-2-yl]-propionamide]: the IC50 worked out at 4 nM.

As to `COc1ccc(CNC(=O)CCc2nc3cccnc3n2Cc2ccc(F)cc2)cc1` [Example 97, 3-[3-(4-Fluoro-benzyl)-3H-imidazo[4,5-b]pyridin-2-yl]-N-(4-methoxy-benzyl)-propionamide], the IC50 was 40 nM.

With `C[C@H](NC(=O)CCc1nc2cc(Br)cnc2n1Cc1ccc(OC(F)(F)F)cc1)c1ccc(Cl)cc1` [Example 61], the IC50 turned out to be 100 nM.

With `CC(C)(C)OC(=O)N1CCC[C@H](CNC(=O)CCc2nc3cccnc3n2Cc2ccc(OC(F)(F)F)cc2)C1` [Example 66, (R)-3-({3-[3-(4-Trifluoromethoxy-benzyl)-3H-imidazo[4,5-b]pyridin-2-yl]-propionylamino}-methyl)-piperidine-1-carboxylic acid tert-butyl ester], the IC50 amounted to 162 nM.

On to `COc1ccc(CNC(=O)CCc2nc3cc(F)cnc3n2Cc2ccccc2OC)cc1` [Example 101, 3-[6-Fluoro-3-(2-methoxy-benzyl)-3H-imidazo[4,5-b]pyridin-2-yl]-N-(4-methoxy-benzyl)-propionamide], for which the IC50 was 55 nM.

Take `COc1ccc(Cn2c(CCC(=O)N(C)[C@@H](C)c3ccccc3)nc3cccnc32)cc1` [Example 104, 3-[3-(4-Methoxy-benzyl)-3H-imidazo[4,5-b]pyridin-2-yl]-N-methyl-N-((S)-1-phenyl-ethyl)-propionamide]: the IC50 was determined as 69 nM.

With `O=C(CCc1nc2cccnc2n1Cc1ccc(F)c(F)c1)NCC1CCCCC1` [Example 71, N-Cyclohexylmethyl-3-[3-(3,4-difluoro-benzyl)-3H-imidazo[4,5-b]pyridin-2-yl]-propionamide], the IC50 is 243 nM.

With `COc1ccc([C@H](C)NC(=O)NCc2nc3cccnc3n2Cc2ccc(F)cc2)cc1` [Example 159, 1-[3-(4-Fluoro-benzyl)-3H-imidazo[4,5-b]pyridin-2-ylmethyl]-3-[(S)-1-(4-methoxy-phenyl)-ethyl]-urea], the IC50 stood at 42 nM.

For the molecule `C[C@H](NC(=O)NCc1nc2cccnc2n1Cc1ccc(F)cc1)c1ccccc1` [Example 161, 1-[3-(4-fluoro-benzyl)-3H-imidazo[4,5-b]pyridin-2-ylmethyl]-3-((S)-1-phenyl-ethyl)-urea], the IC50 came to 115 nM.

As for `C[C@H](NC(=O)CCc1nc2cccnc2n1Cc1ccc(F)cc1)c1ccc(N2CCOCC2)cc1` [Example 185, 3-[3-(4-Fluoro-benzyl)-3H-imidazo[4,5-b]pyridin-2-yl]-N-[(S)-1-(4-morpholin-4-yl-phenyl)-ethyl]-propionamide], the IC50 stood at 13 nM.

In the case of `C[C@H](NC(=O)CCc1nc2cccnc2n1Cc1ccc(F)cc1)c1ccc(N2CCCC2)cc1` [Example 180, 3-[3-(4-Fluoro-benzyl)-3H-imidazo[4,5-b]pyridin-2-yl]-N-[(S)-1-(4-pyrrolidin-1-yl-phenyl)-ethyl]-propionamide], the IC50 worked out at 6 nM.

Turning to `C[C@H](NC(=O)CCc1nc2cccnc2n1Cc1ccc(F)c(F)c1)c1ccc(N2CCC(N(C)C)C2)cc1` (some centres unmarked) [Example 177], the IC50 came out at 3 nM.

With `O=C(CCc1nc2cccnc2n1Cc1ccc(OC(F)(F)F)cc1)N[C@H]1CCc2ccccc21` [Example 25, N-(S)-Indan-1-yl-3-[3-(4-trifluoromethoxy-benzyl)-3H-imidazo[4,5-b]pyridin-2-yl]-propionamide], the IC50 was found to be 4 nM.

`O=C(CCc1nc2cccnc2n1Cc1ccc(F)c(F)c1)N[C@@H]1c2ccccc2C[C@@H]1O` [Example 46, 3-[3-(3,4-Difluoro-benzyl)-3H-imidazo[4,5-b]pyridin-2-yl]-N-((1R,2S)-2-hydroxy-indan-1-yl)-propionamide]: the IC50 turned out to be 18 nM.

These data come from US11453666B2, “Autotaxin inhibitory compounds” (Cancer Research Technology Limited, priority 2015, dated 2022).
